{
  "source": "patent US5849759A",
  "about": "“Naphthyl-substituted benzimidazole derivatives as anti-coagulants” (Berlex Laboratories, Inc., priority 1995, dated 1998)",
  "key": {"[1]": {"target": "T1, Human thrombin (factor IIa) (Homo sapiens, UniProt P00734)", "T1 construct": "Human thrombin stock solution; purchased Enzyme Research Lab", "test": "In vitro chromogenic assay for thrombin", "format": "biochemical", "conditions": "substrate concentration stated equal to Km under present assay conditions; pH 7.5, ambient temperature; read-out: Km (S2302)", "experimental": "(§1) The activities were determined as an initial rate of cleavage of the peptide p-nitroanilide by the enzyme. The cleavage product, p-nitroaniline, absorbs at 405 nm with a molar extinction coefficient of 9920M^-1 cm^-1.\n(§2) 50 mM TrisHCl, 150 mM NaCl, 2.5 mM CaCl2, and 0.1% polyethylene glycol 6000, pH 7.5.\n2. Human thrombin stock solution: Stored at -80° C. (working solution (2X): 1200 ng/mL or 40 nM in assay buffer, prepare prior to use).\n2. S2302 (Thrombin assay) stock solution: 10 mM in dH2 O, stored at 4° C. (working solution (4X): 1200 μM in assay buffer).\nAssays were performed in 96-well microtiter plates in a total volume of 200 μl. […] Concentrations of the standard inhibitor compound in the assay were from 5 μM to 0.021 μM in 1 to 3 dilution. Concentration of the test compounds in the assay typically were from 10 μM to 0.041 μM in 1 to 3 dilution. For potent test compounds, the concentrations used in the factor Xa assay were further diluted 100 fold (100 nM to 0.41 nM) or 1000 fold (10 nM to 0.041 nM). […]\n(§3) The enzyme kinetics were measured at 405 nm, at 10 seconds interval, for five minutes in a THERMOmax plate reader at ambient temperature.\n(§4) Enzyme rates were calculated as mOD/min based on the first two minutes readings. The IC50 values were determined by fitting the data to the log-logit equation (linear) or the Morrison equation (non-linear) with an EXCEL spread-sheet. […]"}, "[2]": {"target": "T2, Human tissue plasminogen activator (tPA) (Two chains, Sigma) (Homo sapiens, UniProt P00750)", "T2 construct": "purchased Sigma", "T2 sequence (P00750 311-562 limits assumed)": "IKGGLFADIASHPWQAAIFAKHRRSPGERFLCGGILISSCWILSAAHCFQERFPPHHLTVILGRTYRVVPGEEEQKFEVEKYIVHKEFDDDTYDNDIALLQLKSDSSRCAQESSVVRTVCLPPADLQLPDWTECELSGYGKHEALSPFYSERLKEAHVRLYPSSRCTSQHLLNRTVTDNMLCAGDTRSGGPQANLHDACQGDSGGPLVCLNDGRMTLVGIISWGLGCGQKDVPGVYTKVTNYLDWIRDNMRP", "T2 sequence (P00750 36-310 partner limits assumed)": "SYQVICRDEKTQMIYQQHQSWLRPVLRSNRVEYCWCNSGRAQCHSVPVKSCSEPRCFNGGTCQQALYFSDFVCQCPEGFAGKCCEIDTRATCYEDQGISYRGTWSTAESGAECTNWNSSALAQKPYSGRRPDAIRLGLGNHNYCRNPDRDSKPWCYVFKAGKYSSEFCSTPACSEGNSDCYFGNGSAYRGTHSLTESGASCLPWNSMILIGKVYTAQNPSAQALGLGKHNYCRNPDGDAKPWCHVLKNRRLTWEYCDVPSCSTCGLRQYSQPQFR", "test": "In vitro chromogenic assay for tissue plasminogen activator", "format": "biochemical", "conditions": "substrate concentration stated equal to Km under present assay conditions; pH 7.5, ambient temperature; read-out: Km (S2288)", "experimental": "as §1, §2\n3. Human tissue plasminogen activator (tPA) (Two chains, Sigma) stock solution: 1 mg/mL, stored at -80° C. (working solution (2X): 1361 ng/mL in assay buffer, prepare prior to use).\n3. S2288 (tPA assay) stock solution: 10 mM in dH2 O, stored at 4° C. (working solution (4X): 1484 μM in assay buffer). (All substrate working solutions were prepared on assay day […].)\nAssays were performed in 96-well microtiter plates in a total volume of 200 μl. […] Concentrations of the standard inhibitor compound in the assay were from 5 μM to 0.021 μM in 1 to 3 dilution. Concentration of the test compounds in the assay typically were from 10 μM to 0.041 μM in 1 to 3 dilution. […]\nas §3, §4"}},
  "note": "Where a SMILES comes first, the peptide text is derived from it. [ ]: non-standard residue; d: D form. The star is where a group is joined. pNA = O=[N+]([O-])c1ccc(N*)cc1",
  "data": [
    {"smiles": "N=C(N)NCCC[C@H](NC(=O)[C@H](Cc1ccccc1)NC(=O)[C@H]1CCCN1)C(=O)Nc1ccc([N+](=O)[O-])cc1", "note": "[S2302] (H-[dP]-Phe-Arg-pNA)", "values": [
      {"measurement": "Km", "setting": "[1]", "result": 300, "unit": "µM"}
    ]},
    {"smiles": "CC[C@@H](C)[C@@H](N)C(=O)N1CCC[C@H]1C(=O)N[C@@H](CCCN=C(N)N)C(=O)Nc1ccc([N+](=O)[O-])cc1", "note": "[S2288] (H-[dI]-Pro-Arg-pNA)", "values": [
      {"measurement": "Km", "setting": "[2]", "result": 371, "unit": "µM"}
    ]}
  ]
}
